What was measured:
[1] = system: hTel23 (DNA, G4) TAGGGTTAGGGTTAGGGTTAGGG; test: CD melting; conditions: 80 mM KCl, 10 mM KH2PO4 (90 mM K+); pH 7.3; 5 equiv. complex (25 µM), 5 µM DNA, 0.5 °C/min
[2] = system: hTel23 (DNA, G4) TAGGGTTAGGGTTAGGGTTAGGG; test: CD titration, Hill fit; conditions: 80 mM KCl, 10 mM KH2PO4 (90 mM K+), pH 7.3, 5 °C, up to 0.9% DMSO, apparent

| ΔTM [1] | Kd ([2]; 290 nm (hybrid form)) [µM] | Kd ([2]; 272 nm (parallel form), 290 nm (hybrid) gives 17) [µM] | Structure (SMILES) |
| --- | --- | --- | --- |
| −13 °C | 9.7 |  | CC(=O)NCCN1[C]N2C=CC=CC2=C1.CC(=O)NCCN1[C]N2C=CC=CC2=C1.[Au+] |
| −2 °C |  |  | CCN1[C]N(CC)C(c2ccc(OC)cc2)=C1c1ccc(OC)cc1.CCN1[C]N(CC)C(c2ccc(OC)cc2)=C1c1ccc(OC)cc1.[Au+] |
| −4 °C |  | 5.1 | [Au+].[C]1C2=C(CCCC2)N2CCCCN12.[C]1C2=C(CCCC2)N2CCCCN12 |
| +1 °C |  |  | [Au+].[C]1N(Cc2ccccn2)C=CN1c1c2ccccc2nc2ccccc12.[C]1N(Cc2ccccn2)C=CN1c1c2ccccc2nc2ccccc12 |
